In US8901118B2, “Compounds and methods for kinase modulation, and indications therefor” (Plexxikon Inc., priority 2010, dated 2014):

Key:
BCR-FMS BaF3 cells = molecular target: T1, BCR-FMS BaF3 cells (Homo sapiens, UniProt P07333); experiment: BaF3 BCR-FMS cell proliferation assay (ATPlite); assay type: cell-based; settings: read-out: Inhibition of Cell Proliferation IC50, BCR/BaF3 Fms
T1 construct: fused on or other part: P11274 (Breakpoint cluster region protein)
T1 sequence (P07333 582-910): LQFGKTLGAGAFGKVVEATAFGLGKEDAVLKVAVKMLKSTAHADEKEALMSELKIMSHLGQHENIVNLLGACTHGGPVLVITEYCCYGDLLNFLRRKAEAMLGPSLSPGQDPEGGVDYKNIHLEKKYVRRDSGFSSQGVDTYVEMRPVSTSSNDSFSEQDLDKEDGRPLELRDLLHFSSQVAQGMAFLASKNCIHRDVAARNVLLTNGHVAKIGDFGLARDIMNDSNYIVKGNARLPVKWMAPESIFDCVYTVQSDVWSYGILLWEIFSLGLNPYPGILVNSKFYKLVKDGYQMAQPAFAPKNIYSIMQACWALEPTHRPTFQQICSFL
Protocol: Compounds are assessed in a variety of cell based assays. For example BaF3 cells engineered with any of BCR-FMS, BCR-KIT, BCR-FLT3, BCR-NTRK1, BCR-NTRK2, and BCR-NTRK3, are used in cell proliferation assays to assess inhibitory activity of Fms, Kit, Flt-3, TrkA, TrkB, and TrkC, respectively. An MV-4-11 (leukemia) cell proliferation assay is used to assess inhibitory activity in Flt-3, and SKNSH (human neuroblastoma) cell proliferation assay is used to assess efficacy of Fms/Trk inhibitors. Additional cells may be assayed similarly to assess the efficacy of Fms/Trk inhibitors, such as MiaPaCa (human pancreatic cancer) and Capan-1 (human pancreatic carcinoma) cells. Reagent and assay conditions are as follows: • BaF3 cells: • Maintained in RPMI containing 10% FBS, 1% PenStrep, 1% NEAA, and 1% L-Glutamine, supplemented with 1 mg/mL G418 and 5% WEHI-CM (or recombinant murine IL-3). • Confluent cells are split 1:50 to 1:100 every 3-4 days. • MV-4-11 cells: • Maintained in Iscove's Modified Dulbecco's Medium containing 10% FBS. • Confluent cells are split 1:4 every 3-4 days. • SKNSH cells: RPMI containing 10% FBS. On day 1, cells are counted, then centrifuged in a conical tube for 5 minutes at 1000 rpm. The supernatant is removed and cells are re-suspended as follows: • BaF3: resuspend in growth media +1 mg/mL G418 (without WEHFIL-3) to 2×10^5 cells/mL. • MV-4-11: resuspend in growth media to 5×10^5 cells/mL. • SKNSH: resuspend in growth media to 2×10^4 cells/mL. The cells are plated (50 μL, 150 μL for SKNSH cells) in each well of a 96-well dish (Corning 3610) and incubated at 37° C. in 5% CO2 overnight, cells plated to a final concentration of cells as follows: • BaF3: 10,000 cells per well. • MV-4-11: 25,000 cells per well. • SKNSH: 3,000 cells per well. On day 2, compound at a maximum concentration of 5 mM is serially diluted 1:3 for a total of 8 point titration with DMSO as a control. A 1 μL aliquot of each dilution point is added to 249 μL growth media and 50 μL is added to a well containing cells, providing 10 μM compound for the maximum concentration point. The cells are incubated for 3 days at 37° C. in 5% CO2. For SKNSH cells, a 0.75 μL aliquot of appropriate dilution in DMSO is added to 150 μL of cells. On day 5, ATPlite 1 step Luminescence Assay System (Perkin Elmer #6016739) is brought to room temperature along with the cell cultures. ATPlite is added to each well as follows: • BaF3: 25 μL per well. • MV-4-11: 40 μL per well. • SKNSH: 20 μL per well. The cells are incubated at room temperature for 10 minutes, then luminescence is read on Safire reader. The measured luminescence correlates directly with cell number, such that the reading as a function of compound concentration is used to determine the IC50 value.
It is understood that the results of these assays may vary as assay conditions are varied. Inhibition levels determined under the conditions described herein represent a relative activity for the compounds tested under the specific conditions employed. The cell based assays are likely to show variability due to the complexity of the system and the sensitivity thereof to any changes in the assay conditions. […] Results for compounds that are tested and show substantially no inhibition below the highest tested concentration are represented as “-” in the tables below. In some instances, the compounds were not tested in all of the assays, or assay results were not valid, as indicated by NA in the tables below.

c-Kit kinase = c-Kit kinase (Homo sapiens, UniProt P10721); experiment: c-Kit kinase biochemical activity assay (AlphaScreen, biotin-(E4Y)10 phosphorylation); settings: 100 μM ATP; read-out: Biochemical Inhibition IC50 Kit
c-Kit kinase, sequence (P10721 26-976): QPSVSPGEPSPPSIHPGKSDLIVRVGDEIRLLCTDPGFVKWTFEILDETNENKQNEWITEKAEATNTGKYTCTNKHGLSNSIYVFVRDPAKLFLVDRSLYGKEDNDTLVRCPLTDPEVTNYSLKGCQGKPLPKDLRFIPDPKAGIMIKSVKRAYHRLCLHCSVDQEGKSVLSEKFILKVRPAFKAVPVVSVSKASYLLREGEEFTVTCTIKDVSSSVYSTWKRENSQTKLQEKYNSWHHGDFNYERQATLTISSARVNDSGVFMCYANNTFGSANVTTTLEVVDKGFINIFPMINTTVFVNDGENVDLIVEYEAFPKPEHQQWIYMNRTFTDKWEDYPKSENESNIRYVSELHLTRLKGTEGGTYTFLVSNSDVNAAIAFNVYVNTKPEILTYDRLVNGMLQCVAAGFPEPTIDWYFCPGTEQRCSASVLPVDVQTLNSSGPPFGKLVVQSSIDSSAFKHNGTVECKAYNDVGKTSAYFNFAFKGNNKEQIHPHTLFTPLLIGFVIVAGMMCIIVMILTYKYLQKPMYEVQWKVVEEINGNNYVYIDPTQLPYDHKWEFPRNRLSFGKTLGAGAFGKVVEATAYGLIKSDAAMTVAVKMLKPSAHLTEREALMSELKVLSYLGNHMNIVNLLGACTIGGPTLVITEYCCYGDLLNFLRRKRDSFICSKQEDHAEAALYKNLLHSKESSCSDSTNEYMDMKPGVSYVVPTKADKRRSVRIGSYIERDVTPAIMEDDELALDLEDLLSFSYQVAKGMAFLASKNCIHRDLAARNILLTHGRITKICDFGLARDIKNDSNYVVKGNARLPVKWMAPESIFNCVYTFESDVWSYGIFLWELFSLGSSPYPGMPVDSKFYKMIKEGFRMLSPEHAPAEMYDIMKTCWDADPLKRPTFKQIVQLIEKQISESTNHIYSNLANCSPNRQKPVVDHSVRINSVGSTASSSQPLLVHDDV
Protocol: Assays for biochemical and cell based activity are known in the art, for example, U.S. Patent Application Publication Number 2009/0076046, the disclosure of which is hereby incorporated by reference as it relates to such assays. For example, in one assay the biochemical activity IC50 values are determined with respect to inhibition of c-Kit kinase activity, where inhibition of phosphorylation of a peptide substrate is measured as a function of compound concentration. Compounds to be tested are dissolved in DMSO to a concentration of 20 mM. These are diluted 30 μL into 120 μL of DMSO (4 mM) and 1 μL is added to an assay plate. These are then serially diluted […] (50 μL to 100 μL DMSO) for a total of 8 points. Plates are prepared such that each kinase reaction is 20 μL in 1× kinase buffer (25 mM HEPES, pH 7.5, 2 mM MgCl2, 2 mM MnCl2, 0.01% Tween-20, 1 mM DTT, 0.01% BSA), 5% DMSO and 100 μM ATP. Substrate is 30 nM biotin-(E4Y) 10 (Millipore). C-kit kinase (obtained from Millipore (#14-559) or is prepared as described in U.S. Patent Application Publication Number 2009/0076046, the disclosure of which is hereby incorporated by reference as it relates to this assay) is at 0.75 ng per sample. After incubation of the kinase reaction for 1 hour at room temperature, 5 μL of donor beads (Streptavidin coated beads (Perkin Elmer Life Science) final concentration 10 μg/mL) in stop buffer (25 mM Hepes pH 7.5, 100 mM EDTA, 0.01% BSA) is added, the sample is mixed and incubated for 20 minutes at room temperature before adding 5 μL of acceptor beads (PY20 coated beads (Perkin Elmer Life Science) final concentration 10 μg/mL) in stop buffer. The samples are incubated for 60 minutes at room temperature and the signal per well is read on Envision reader. Phosphorylated substrate results in binding of the PY20 antibody and association of the donor and acceptor beads such that signal correlates with kinase activity. The signal vs. compound concentration is used to determine the IC50.

Row | IC50 (BCR-FMS BaF3 cells) [nM] | IC50 (c-Kit kinase) [nM] | Structure (SMILES)
1 | < 100 | < 100 | Cc1cnc2[nH]cc(Cc3cnc(Nc4ccc(F)cc4)nc3)c2c1 [Compound P-3010, (4-Fluoro-phenyl)-[5-(5-methyl-1H-pyrrolo[2,3-b]pyridin-3-ylmethyl)-pyrimidin-2-yl]-amine]
2 | < 100 | < 10 | Fc1ccc(Nc2ncc(Cc3c[nH]c4ncc(Cl)cc34)cn2)cc1 [Compound P-3012, [5-(5-Chloro-1H-pyrrolo[2,3-b]pyridin-3-ylmethyl)-pyrimidin-2-yl]-(4-fluoro-phenyl)-amine]
3 | < 100 | < 1000 | Fc1nc(NC2CCC(F)(F)CC2)ccc1Cc1c[nH]c2ncc(Cl)cc12 [Compound P-3013, [5-(5-Chloro-1H-pyrrolo[2,3-b]pyridin-3-ylmethyl)-6-fluoro-pyridin-2-yl]-(4,4-difluoro-cyclohexyl)-amine]
4 | < 1000 | < 100 | COc1ccc(Nc2ccc(C(=O)c3c[nH]c4ncnc(NC5CCC(F)(F)CC5)c34)c(F)n2)cn1 [Compound P-4056, [4-[(4,4-difluorocyclohexyl)amino]-7H-pyrrolo[2,3-d]pyrimidin-5-yl]-[2-fluoro-6-[(6-methoxy-3-pyridyl)amino]-3-pyridyl]methanone]
5 | < 10 | < 100 | CCNc1ncnc2[nH]cc(C(=O)c3ccc(Nc4ccc(C5CC5)nc4)nc3F)c12 [Compound P-4060, [6-[(6-cyclopropyl-3-pyridyl)amino]-2-fluoro-3-pyridyl]-[4-(ethylamino)-7H-pyrrolo[2,3-d]pyrimidin-5-yl]methanone]
6 | < 100 | < 1000 | CNc1ncnc2[nH]cc(C(=O)c3ccc(NC4CCC(F)(F)CC4)nc3F)c12 [Compound P-4063, [6-[(4,4-difluorocyclohexyl)amino]-2-fluoro-3-pyridyl]-[4-(methylamino)-7H-pyrrolo[2,3-d]pyrimidin-5-yl]methanone]
7 | – | < 1000 | CCc1ccc(Nc2ccc(C(=O)c3c[nH]c4ncnc(Nc5ccc(C)nc5)c34)c(F)n2)cn1 [Compound P-4086, [6-[(6-ethyl-3-pyridyl)amino]-2-fluoro-3-pyridyl]-[4-[(6-methyl-3-pyridyl)amino]-7H-pyrrolo[2,3-d]pyrimidin-5-yl]methanone]

The remaining lines, values behind:

Row | Structure (SMILES) | IC50 (BCR-FMS BaF3 cells) [nM] | IC50 (c-Kit kinase) [nM]
8 | CC1CCC(Nc2ncc(Cc3c[nH]c4ncc(Cl)cc34)cn2)CC1 (centres unmarked) [Compound P-3009, [5-(5-Chloro-1H-pyrrolo[2,3-b]pyridin-3-ylmethyl)-pyrimidin-2-yl]-(4-methyl-cyclohexyl)-amine] | < 1000 | –
9 | Clc1ccc(Nc2ncc(Cc3c[nH]c4ncc(Cl)cc34)cn2)cc1 [Compound P-3011, (4-Chloro-phenyl)-[5-(5-chloro-1H-pyrrolo[2,3-b]pyridin-3-ylmethyl)-pyrimidin-2-yl]-amine] | < 100 | < 10
10 | Fc1ccccc1Nc1ncc(Cc2c[nH]c3ncc(Cl)cc23)cn1 [Compound P-3014, [5-(5-Chloro-1H-pyrrolo[2,3-b]pyridin-3-ylmethyl)-pyrimidin-2-yl]-(2-fluoro-phenyl)-amine] | < 100 | < 100
11 | Clc1cnc2[nH]cc(Cc3cnc(Nc4ccccc4Cl)nc3)c2c1 [Compound P-3015, (2-Chloro-phenyl)-[5-(5-chloro-1H-pyrrolo[2,3-b]pyridin-3-ylmethyl)-pyrimidin-2-yl]-amine] | < 1000 | < 1000
12 | COc1ccc(Nc2ccc(C(=O)c3c[nH]c4ncnc(NC(C)(C)C)c34)c(F)n2)cn1 [Compound P-4055, [4-(tert-butylamino)-7H-pyrrolo[2,3-d]pyrimidin-5-yl]-[2-fluoro-6-[(6-methoxy-3-pyridyl)amino]-3-pyridyl]methanone] | < 1000 | < 1000
13 | O=C(c1ccc(NC2CCC(F)(F)CC2)nc1Cl)c1c[nH]c2ncnc(NCC(F)(F)F)c12 [Compound P-4057, [2-chloro-6-[(4,4-difluorocyclohexyl)amino]-3-pyridyl]-[4-(2,2,2-trifluoroethylamino)-7H-pyrrolo[2,3-d]pyrimidin-5-yl]methanone] | < 1000 | > 1000
14 | CNc1ncnc2[nH]cc(C(=O)c3ccc(NC4CCC(F)(F)CC4)nc3Cl)c12 [Compound P-4058, [2-chloro-6-[(4,4-difluorocyclohexyl)amino]-3-pyridyl]-[4-(methylamino)-7H-pyrrolo[2,3-d]pyrimidin-5-yl]methanone] | < 100 | > 1000
15 | O=C(c1ccc(NC2CCC(F)(F)CC2)nc1Cl)c1c[nH]c2ncnc(NC3CC3)c12 [Compound P-4059, [2-chloro-6-[(4,4-difluorocyclohexyl)amino]-3-pyridyl]-[4-(cyclopropylamino)-7H-pyrrolo[2,3-d]pyrimidin-5-yl]methanone] | < 100 | < 1000
16 | O=C(c1ccc(NC2CCC(F)(F)CC2)nc1F)c1c[nH]c2ncnc(NCC(F)(F)F)c12 [Compound P-4061, [6-[(4,4-difluorocyclohexyl)amino]-2-fluoro-3-pyridyl]-[4-(2,2,2-trifluoroethylamino)-7H-pyrrolo[2,3-d]pyrimidin-5-yl]methanone] | < 100 | > 1000
17 | O=C(c1ccc(NC2CCC(F)(F)CC2)nc1F)c1c[nH]c2ncnc(NC3CC3)c12 [Compound P-4062, [4-(cyclopropylamino)-7H-pyrrolo[2,3-d]pyrimidin-5-yl]-[6-[(4,4-difluorocyclohexyl)amino]-2-fluoro-3-pyridyl]methanone] | < 100 | < 100
